Data as given in patent US8067424B2, “Selective inhibitors for cyclin-dependent kinases” (Emory University, priority 2007, dated 2011).
Read-outs that look alike come from different tables or passages of the source.

Columns and labels:
HIPK3 = HIPK3 (Homo sapiens, UniProt Q9H422); experiment: Kinase screen: HIPK3 assay; assay type: biochemical; conditions: read-out: Mean Remaining Enzyme Activity (%)
Description: Generally, the same procedure was used for all assays. Since the total assay volume was 25.5 microliters, 0.5 microliters of inhibitors at 51× assay concentration were added to the plates before any other addition.
The basic procedure was to add 0.5 microliters inhibitor/control in DMSO to plate. Fifteen microliters of enzyme/substrate/buffer mix were added and incubated for 5 min. Ten microliters MgATP at the relevant concentration were added and incubated for 30 min. The assay was stopped by adding 5 microliters of 3% orthophosphoric acid. The assay was transferred to a p81 filter plate and read in a scintillation counter of 30 sec/well. Note that this assay procedure was not followed for MKK1, which instead involved a two-step assay, and PKC alpha, which required the addition of lipid vesicles.
HIPK3 assay: 5-20 mU of HIPK3 (diluted in 50 mM Tris (pH 7.5), 0.1 mM EGTA, 1 mg/ml BSA, 0.1%, b-Mercaptoethanol) was assayed against MBP in a final volume of 25.5 μl containing 50 mM Tris (pH 7.5), 0.1 mM EGTA, 0.1%, b-Mercaptoethanol, 0.33 mg/ml MBP, 10 mM magnesium acetate and 0.02 mM [33P-g-ATP] (500-1000 cpm/pmole) and incubated for 30 mins at room temperature. Assays were stopped by addition of 5 μl of 0.5M (3%) orthophosphoric acid. Assays were harvested onto P81 Unifilter plates using a wash buffer of 50 mM orthophosphoric acid.

[1] = biological target: T1, CDK7 complex (CDK7, Cyclin H, MAT1) (Homo sapiens, UniProt P50613); experiment: CDK7/CycH/MAT1 trimeric complex kinase assay (PKLight luciferase); assay type: biochemical; conditions: 100 nM; mean of three (standard deviation); read-out: CDK7 % remaining kinase activity after incubation with 100 nM of compound
T1 construct: purchased Proqinase GmbH, Germany
T1 sequence (P50613 whole entry): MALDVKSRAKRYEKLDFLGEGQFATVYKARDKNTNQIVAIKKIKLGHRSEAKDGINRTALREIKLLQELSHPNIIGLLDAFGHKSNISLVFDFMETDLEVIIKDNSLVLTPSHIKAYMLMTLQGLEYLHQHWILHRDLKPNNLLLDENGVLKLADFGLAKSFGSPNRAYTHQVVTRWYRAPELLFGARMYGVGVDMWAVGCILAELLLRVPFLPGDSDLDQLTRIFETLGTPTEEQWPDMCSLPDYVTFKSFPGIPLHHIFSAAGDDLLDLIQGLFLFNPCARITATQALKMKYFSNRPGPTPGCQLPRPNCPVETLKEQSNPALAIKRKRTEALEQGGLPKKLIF
T1 sequence (P51946 whole entry partner): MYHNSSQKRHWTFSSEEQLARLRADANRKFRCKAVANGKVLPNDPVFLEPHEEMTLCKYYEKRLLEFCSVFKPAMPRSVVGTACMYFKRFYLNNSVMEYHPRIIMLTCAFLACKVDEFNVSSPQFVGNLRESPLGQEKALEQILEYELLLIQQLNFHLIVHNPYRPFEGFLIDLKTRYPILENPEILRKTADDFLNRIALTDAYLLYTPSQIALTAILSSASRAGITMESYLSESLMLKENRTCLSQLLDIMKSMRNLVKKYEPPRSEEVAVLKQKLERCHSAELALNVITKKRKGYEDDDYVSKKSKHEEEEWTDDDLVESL
T1 sequence (P51948 whole entry partner): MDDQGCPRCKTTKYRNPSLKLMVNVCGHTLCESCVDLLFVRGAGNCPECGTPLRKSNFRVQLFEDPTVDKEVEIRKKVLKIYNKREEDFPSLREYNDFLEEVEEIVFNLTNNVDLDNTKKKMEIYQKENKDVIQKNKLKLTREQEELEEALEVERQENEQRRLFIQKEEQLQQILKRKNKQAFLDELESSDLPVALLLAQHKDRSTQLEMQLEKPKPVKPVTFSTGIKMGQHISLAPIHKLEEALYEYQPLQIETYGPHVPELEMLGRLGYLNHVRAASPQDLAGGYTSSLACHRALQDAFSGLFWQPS
Outline: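 Compound was preincubated with the kinase for 30 min at 30 °C; the reaction then ran for 20 min at 30 °C with 2 μM ATP final. Remaining ATP was measured by PKLight luciferase luminescence at 560 nm. Values were corrected against the no-enzyme control and expressed relative to enzyme-only activity (100%), in triplicate.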

CDK2/cyclin A complex = biological target: T2, CDK2/cyclin A complex (Homo sapiens, UniProt P24941); experiment: CDK2/cyclin A kinase assay (as for CDK7); assay type: biochemical; conditions: for remaining activity at 0.1 µM: 100 nM, mean of three (standard deviation), read-out: CDK2 % remaining kinase activity after incubation with 100 nM of compound; for IC50: Table 7, mean of three experiments, read-out: CDK2 kinase inhibition in vitro (IC50)
T2 construct: purchased Proqinase GmbH, Germany
Outline: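 Run as the CDK7 protocol with 50 ng CDK2/cyclin A or 100 ng CDK9/cyclin T; compound 30 min at 30 °C, then 2 μM ATP final for 20 min at 30 °C. ATP depletion by luciferase luminescence (PKLight), triplicate, normalised to no-enzyme and enzyme controls.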

CCRF-CEM = conditions: for Mean Optical Densities / Percent Growth: CCRF-CEM
HL-60(TB) = experiment: cells; conditions: Homo sapiens
RPMI-8226 = experiment: cells; conditions: Homo sapiens
EKVX = experiment: cells; conditions: Homo sapiens
HCT-116 = experiment: cells; conditions: Homo sapiens
SF-539 = experiment: cells; conditions: Homo sapiens
SNB-19 = experiment: cells; conditions: Homo sapiens
[2] = IGROV1, log10 concentration −4.0
[3] = IGROV1, log10 concentration −5.0
[4] = IGROV1, log10 concentration −6.0
[5] = IGROV1, log10 concentration −7.0
[6] = IGROV1, log10 concentration −8.0
[7] = OVCAR-4, log10 concentration −4.0
[8] = OVCAR-4, log10 concentration −5.0
[9] = OVCAR-4, log10 concentration −6.0
[10] = OVCAR-4, log10 concentration −7.0
[11] = OVCAR-4, log10 concentration −8.0
[12] = OVCAR-8, log10 concentration −4.0
[13] = OVCAR-8, log10 concentration −5.0
[14] = OVCAR-8, log10 concentration −6.0
[15] = OVCAR-8, log10 concentration −7.0
[16] = OVCAR-8, log10 concentration −8.0

Chain of HIPK3 (Q9H422 whole entry, species assumed): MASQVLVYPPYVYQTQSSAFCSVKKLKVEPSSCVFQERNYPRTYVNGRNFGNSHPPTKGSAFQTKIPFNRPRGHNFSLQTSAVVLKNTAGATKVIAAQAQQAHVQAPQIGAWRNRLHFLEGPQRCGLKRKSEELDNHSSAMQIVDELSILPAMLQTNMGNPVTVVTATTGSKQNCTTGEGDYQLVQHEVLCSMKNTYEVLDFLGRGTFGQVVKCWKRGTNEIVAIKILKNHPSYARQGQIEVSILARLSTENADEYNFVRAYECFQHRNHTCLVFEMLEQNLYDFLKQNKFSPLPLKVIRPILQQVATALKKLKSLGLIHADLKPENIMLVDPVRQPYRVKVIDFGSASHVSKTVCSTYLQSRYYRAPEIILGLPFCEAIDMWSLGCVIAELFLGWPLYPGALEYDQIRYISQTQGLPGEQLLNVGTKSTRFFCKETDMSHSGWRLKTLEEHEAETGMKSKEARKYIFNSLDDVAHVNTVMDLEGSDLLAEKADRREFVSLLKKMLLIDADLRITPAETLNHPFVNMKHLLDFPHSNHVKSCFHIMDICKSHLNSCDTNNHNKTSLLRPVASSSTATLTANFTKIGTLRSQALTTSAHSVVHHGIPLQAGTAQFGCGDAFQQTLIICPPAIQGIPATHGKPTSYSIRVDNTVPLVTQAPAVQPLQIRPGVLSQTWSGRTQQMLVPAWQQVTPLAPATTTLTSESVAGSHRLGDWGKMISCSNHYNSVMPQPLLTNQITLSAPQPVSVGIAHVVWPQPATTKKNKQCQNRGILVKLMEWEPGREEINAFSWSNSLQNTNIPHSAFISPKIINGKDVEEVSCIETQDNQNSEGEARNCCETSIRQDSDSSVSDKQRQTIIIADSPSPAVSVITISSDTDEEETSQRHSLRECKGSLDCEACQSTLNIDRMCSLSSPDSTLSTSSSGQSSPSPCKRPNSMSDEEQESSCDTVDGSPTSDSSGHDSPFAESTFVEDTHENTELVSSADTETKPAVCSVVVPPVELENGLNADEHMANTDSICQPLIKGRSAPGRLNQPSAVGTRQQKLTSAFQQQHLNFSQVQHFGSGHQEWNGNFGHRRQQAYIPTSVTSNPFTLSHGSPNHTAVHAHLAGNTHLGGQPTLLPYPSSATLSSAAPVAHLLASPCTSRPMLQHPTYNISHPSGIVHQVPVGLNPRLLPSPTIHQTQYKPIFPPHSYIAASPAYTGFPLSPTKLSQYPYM

## CC(C)c1cnn2c(NCc3ccccc3)cc(NCCCCCCCN)nc12 [BS-181]
HIPK3
  remaining activity at 10 µM: 90%

## C=C[C@H](CO)Nc1cc(NCc2ccccc2)n2ncc(C(C)C)c2n1 [ICEC0065]
[1]
  remaining activity at 0.1 µM: 80%
CDK2/cyclin A complex
  remaining activity at 0.1 µM: 95%
  IC50: > 1000 nM

## CC[C@H](CO)Nc1cc(NCc2ccccc2)n2ncc(C(C)C)c2n1 [ICEC0067]
[1]
  remaining activity at 0.1 µM: 49%
CDK2/cyclin A complex
  remaining activity at 0.1 µM: 100%
  IC50: > 1000 nM

## CC(C)c1cnn2c(NCc3ccccc3)cc(N[C@@H](CO)[C@H](O)CO)nc12 [ICEC0318, (3S)-3-(7-(Benzylamino)-3-isopropylpyrazolo[1,5-a]pyrimidin-5-ylamino)butane-1,2,4-triol]
CCRF-CEM; CCRF-CEM (Leukemia)
  TGI: >1.00E−4
CCRF-CEM; log10 concentration −4.0
  Mean Optical Densities: 0.227
  Percent Growth: 11%
CCRF-CEM; log10 concentration −5.0
  Mean Optical Densities: 0.330
  Percent Growth: 33%
CCRF-CEM; log10 concentration −6.0
  Mean Optical Densities: 0.279
  Percent Growth: 22%
CCRF-CEM; log10 concentration −7.0
  Mean Optical Densities: 0.565
  Percent Growth: 82%
CCRF-CEM; log10 concentration −8.0
  Mean Optical Densities: 0.769
  Percent Growth: 125%
IGROV1; IGROV1 (Ovarian Cancer)
  TGI: >1.00E−4
IGROV1; [2]
  Mean Optical Densities: 0.451
  Percent Growth: 4%
IGROV1; [3]
  Mean Optical Densities: 0.510
  Percent Growth: 10%
IGROV1; [4]
  Mean Optical Densities: 0.528
  Percent Growth: 12%
IGROV1; [5]
  Mean Optical Densities: 1.088
  Percent Growth: 68%
IGROV1; [6]
  Mean Optical Densities: 1.429
  Percent Growth: 103%
OVCAR-4; OVCAR-4 (Ovarian Cancer)
  TGI: 1.45E−5
OVCAR-4; [7]
  Mean Optical Densities: 0.269
  Percent Growth: −25%
OVCAR-4; [8]
  Mean Optical Densities: 0.399
  Percent Growth: 5%
OVCAR-4; [9]
  Mean Optical Densities: 0.445
  Percent Growth: 10%
OVCAR-4; [10]
  Mean Optical Densities: 1.138
  Percent Growth: 95%
OVCAR-4; [11]
  Mean Optical Densities: 1.246
  Percent Growth: 109%
OVCAR-8; OVCAR-8 (Ovarian Cancer)
  TGI: >1.00E−4
OVCAR-8; [12]
  Mean Optical Densities: 0.723
  Percent Growth: 10%
OVCAR-8; [13]
  Mean Optical Densities: 0.810
  Percent Growth: 16%
OVCAR-8; [14]
  Mean Optical Densities: 0.803
  Percent Growth: 15%
OVCAR-8; [15]
  Mean Optical Densities: 1.975
  Percent Growth: 89%
OVCAR-8; [16]
  Mean Optical Densities: 2.165
  Percent Growth: 101%
HL-60(TB); HL-60
  GI50: 166 nM
HL-60(TB); HL-60, read-out: LC50
  CC50: > 100000 nM
RPMI-8226; RPMI-8226
  GI50: 227 nM
RPMI-8226; RPMI-8226, read-out: LC50
  CC50: > 100000 nM
EKVX
  GI50: 286 nM
EKVX; read-out: LC50
  CC50: > 100000 nM
HCT-116; HCT-116
  GI50: 161 nM
HCT-116; HCT-116, read-out: LC50
  CC50: > 100000 nM
SF-539; SF-539
  GI50: 199 nM
SF-539; SF-539, read-out: LC50
  CC50: 6850 nM
SNB-19; SNB-19
  GI50: 283 nM
SNB-19; SNB-19, read-out: LC50
  CC50: > 100000 nM
